From patent US6251900A, “Heterocyclic compounds and antitumor agent containing the same as active ingredient” (Zenyaku Kogyo Kabushiki Kaisha, priority 1997, dated 2001)
Structures can show the parent of a compound that is named as a salt.

How the values were obtained:
MCF-7 cells = assay: Growth inhibition of MCF-7 human breast cancer cells, 72 h culture (Test 1); type: cell-based; settings: MCF7, 37° C., read-out: 50% Growth inhibition concentrations (GI50)
Experimental: Used in the test were MCF-7 cells which were established from human breast cancer and were cultured routinely under the conditions of 37° C. and 5% CO2, in RPMI 1640 medium supplemented with 10% fetal calf serum, HEPES buffer solution (25 mM) and kanamycin (0.1 mg/ml). Single cell suspension was prepared by adding trypsin/EDTA to the medium so as to be adjusted to 4.0×10^4 cells/ml. Test compounds were dissolved or suspended in DMSO or RPMI 1640 medium at a concentration of 1.0×10^-4 -1.0×10^-9 M.
The cell suspension and the sample solution or suspension were filled in a 96-wells microplate at a rate of 0.1 ml of the former and 0.1 ml of the latter per well and cultured at 37° C. for 72 hours in 5% CO2.
50% Growth inhibition concentrations (GI50 μM) were calculated from growth inhibitions at various sample concentrations.

[1] = system: M5076 mouse reticulum cell sarcoma cells; assay: Tumor growth inhibition, M5076 mouse reticulum cell sarcoma transplanted subcutaneously in BDF1 mice (Test 2); type: in vivo; settings: abdominally administered for 9 days, tumor weight on day 21
Experimental: The treated group to which the test sample was administered consisted of seven mice while the control group consisted of ten mice. Six weeks old male mice (BDF1, 25±2.5 g) were employed as host animals.
M5076 mouse reticulum cell sarcoma cells routinely cultured in abdominal of C57BL/6 male mice were diluted with cold Hanks solution and 1.0×10^6 cells of them were transplanted subcutaneously into left breast of each mouse. The samples prepared by suspending test compounds in 1% hydroxypropyl cellulose (HPC) were abdominally administered for 9 days after the day after the transplantation. After 21 days passed from the transplantation of the tumor, the mice were killed and the tumors were extracted out to measure the tumor weights of the respective groups.
Effect of sample was calculated as tumor growth inhibition by the following formula:
Tumor Growth Inhibition (%)=(1-T/C)×100
T: tumor weight of group with sample administered
C: tumor weight of control group

[2] = Acute toxicity in BDF1 male mice (Test 3); settings: mouse, in vivo, po, orally or abdominally administered, observation for 14 days
Experimental: The acute toxicity was determined by orally or abdominally administrating the compound 9 or 22 of the present invention, which was adjusted by distilled water added with 1% of hydroxypropyl cellulose, to BDF1 male mice (6-weeks-old, having a body weight of 25±2.5 g) and LD50 was obtained over observation for 14 days. As a result, it was found out that LD50 of any of the compounds was 400-800 mg/kg.

Row | SMILES | GI50 (MCF-7 cells) | further results
1 | c1cn(-c2nc(N3CCOCC3)nc(N3CCOCC3)n2)cn1 [compound A, 2-(imidazol-1-yl)-4,6-dimorpholino-1,3,5-triazine, reference compound] | 20 µM | Tumor Growth Inhibition (%) ([1]; 70 mg/kg): 5.0%
2 | CN(C)c1nc(N(C)C)nc(N(C)C)n1 [compound B, hexamethylmelamine, reference compound] | > 100 µM | Tumor Growth Inhibition (%) ([1]; 100 mg/kg): 38.8%
3 | C[C@@H]1OCCN(c2cc(N3CCOCC3)nc(-n3cnc4ccccc43)n2)[C@H]1C (relative stereo) [compound 22, 2-(benzimidazol-1-yl)-4-(trans-2,3-dimethylmorpholino)-6-morpholinopyrimidine] | 2.2 µM | Tumor Growth Inhibition (%) ([1]; 100 mg/kg): 83.8%; LD50 at 336 h [2]: 400 to 800 mg/kg
4 | C[C@@H]1OCCN(c2nc(N3CCOCC3)nc(-n3cnc4ccccc43)n2)[C@H]1C (relative stereo) [compound 9, 2-(benzimidazol-1-yl)-4-(trans-2,3-dimethylmorpholino)-6-morpholino-1,3,5-triazine] | 1.2 µM | Tumor Growth Inhibition (%) ([1]; 200 mg/kg): 98.6%; LD50 at 336 h [2]: 400 to 800 mg/kg
5 | OCCN(CCO)c1nc(N2CCOCC2)nc(-n2cnc3ccccc32)n1 [compound 42, 2-(benzimidazol-1-yl)-4-[N,N-di(2-hydroxyethyl)amino]-6-morpholino-1,3,5-triazine] | 4.6 µM | –
6 | NCCCCC1CCCN(c2nc(N3CCOCC3)nc(-n3cnc4ccccc43)n2)C1 (stereo not drawn) [compound 53, hydrochloride of 2-[3-(4-aminobutyl)piperidino]-4-(benzimidazol-1-yl)-6-morpholino-1,3,5-triazine] | 5.2 µM | –
7 | CN(Cc1ccccc1)CC1CN(c2nc(N3CCOCC3)nc(-n3cnc4ccccc43)n2)CCO1 (stereo not drawn) [compound 31, 2-(benzimidazol-1-yl)-4-[2-(N-benzyl-N-methylamino-methyl)morpholino]-6-morpholino-1,3,5-triazine] | 6.8 µM | –
8 | CN(C)c1nc(N(C)C)nc(N(C)CO)n1 [compound C, hydroxymethylpentamethylmelamine, reference compound] | > 50 µM | –
9 | OCC1CN(c2nc(N3CCOCC3)nc(-n3cnc4ccccc43)n2)CCO1 (stereo not drawn) [compound 34, 2-(benzimidazol-1-yl)-4-(2-hydroxymethylmorpholino)-6-morpholino-1,3,5-triazine] | 5.8 µM | –
10 | CC(C)(C)OC(=O)NCC1CN(c2cc(N3CCOCC3)nc(-n3cnc4ccccc43)n2)CCO1 (stereo not drawn) [compound 25, 2-(benzimidazol-1-yl)-4-[2-(tert-butoxycarbonylamino-methyl)morpholino]-6-morpholinopyrimidine] | 4 µM | –
11 | c1ccc2c(c1)ncn2-c1nc(N2CCOCC2)nc(N2CCC3(CC2)OCCO3)n1 [compound 48, 2-(benzimidazol-1-yl)-4-[1,4-dioxa-8-azaspiro[4,5]decan-8-yl)-6-morpholino-1,3,5-triazine] | 5 µM | –

The remaining molecules from weak to strong by GI50 (MCF-7 cells), led by results:

Row | GI50 (MCF-7 cells) | SMILES | further results
12 | 4.6 µM | c1ccc2c(c1)ncn2-c1cc(N2CCOCC2)nc(N2CCOCC2)n1 [compound 45, 4-(benzimidazol-1-yl)-2,6-dimorpholinopyrimidine] | –
13 | 3.9 µM | C[C@@H]1CN(c2nc(N3CCO[C@@H](C)[C@H]3C)nc(-n3cnc4ccccc43)n2)C[C@H](C)O1 (relative stereo) [compound 8, 2-(benzimidazol-1-yl)-4-(cis-2,3-dimethylmorpholino)-6-(cis-2,6-dimethylmorpholino)-1,3,5-triazine] | –
14 | 3.8 µM | N#Cc1nc(N2CCOCC2)nc(-n2cnc3ccccc32)n1 [compound 4, 2-(benzimidazol-1-yl)-4-cyano-6-morpholino-1,3,5-triazine] | –
15 | 3.7 µM | Cc1cc2ncn(-c3nc(N4CCOCC4)nc(N4CCOCC4)n3)c2cc1C [compound 30, 2-(5,6-dimethylbenzimidazol-1-yl)-4,6-dimorpholino-1,3,5-triazine] | –
16 | 3.3 µM | c1ccc2c(c1)ncn2-c1nc(N2CCOCC2)nc(N2CCOCC2)n1 [compound 2, 2-(benzimidazol-1-yl)-4,6-dimorpholino-1,3,5-triazine] | –
17 | 3.2 µM | C[C@@H]1CN(c2cc(N3CCOCC3)nc(-n3cnc4ccccc43)n2)C[C@H](C)O1 [compound 19, 2-(benzimidazol-1-yl)-4-(cis-2,6-dimethyl-morpholino)-6-morpholinopyrimidine] | Tumor Growth Inhibition (%) ([1]; 200 mg/kg): 98.1%
18 | 3.2 µM | Cc1nc2ccccc2n1-c1nc(N2CCOCC2)nc(N2C[C@@H](C)O[C@@H](C)C2)n1 [compound 33, 4-(cis-2,6-dimethylmorpholino)-2-(2-methylbenzimidazol-1-yl)-6-morpholino-1,3,5-triazine] | –
19 | 2.9 µM | C[C@@H]1CN(c2nc(N3CCOCC3)nc(-n3cnc4ccccc43)n2)C[C@H](C)O1 [compound 1, 2-(benzimidazol-1-yl)-4-(cis-2,6-dimethyl-morpholino)-6-morpholino-1,3,5-triazine] | Tumor Growth Inhibition (%) ([1]; 200 mg/kg): 94.7%
20 | 1.7 µM | CC1(C)CN(c2nc(N3CCOCC3)nc(-n3cnc4ccccc43)n2)CCO1 [compound 11, 2-(benzimidazol-1-yl)-4-(2,2-dimethylmorpholino)-6-morpholino-1,3,5-triazine] | Tumor Growth Inhibition (%) ([1]; 200 mg/kg): 88.3%
21 | 1.1 µM | C[C@@H]1OCCN(c2cc(N3CCOCC3)nc(-n3cnc4ccccc43)n2)[C@@H]1C (relative stereo) [compound 21, 2-(benzimidazol-1-yl)-4-(cis-2,3-dimethylmorpholino)-6-morpholinopyrimidine] | –
